Patent US20240024514A1, “RECOMBINANT ADENO-ASSOCIATED VIRUSES WITH ENHANCED LIVER TROPISM AND USES THEREOF” (priority 2020, published 2024)

Legend:
HBV DNA [1] = assay: HBV DNA in HBV transgenic mice; format: in vivo; conditions: blood, LAM 150 mg/kg, ETV 3.2 mg/kg, rAAV 3 × 10^10 vg/animal
Experimental: (§1) scAAV2/X-H1-shRNA-intron2 and scAAV2/8-H1-shRNA-intron2 were administered to HBV transgenic mice (Beijing Vitalstar Biotechnology Co., Ltd, B6-Tg HBV/Vst; C57BL/6-HBV) via intravenous injection, respectively. Epivir® (Lamivudine) and Baraclude® (Entecavir) were used as controls. Blood was collected on days 0, 7, 14, 21, 28, 35, 56, 84, 112, 140, 168, 196, 224, and 252, centrifuged, and assayed for the level of HBsAg, HBeAg, and HBV DNA.

HBsAg = HBsAg in HBV transgenic mice; format: in vivo; conditions: blood, LAM 150 mg/kg, ETV 3.2 mg/kg, rAAV 3 × 10^10 vg/animal
Experimental: as §1

HBeAg = HBeAg in HBV transgenic mice; format: in vivo; conditions: blood, ETV 3.2 mg/kg, rAAV 3 × 10^10 vg/animal
Experimental: as §1

HBV HBsAg = assay: suppression of HBV HBsAg in HepG2.2.15 cells; format: cell-based, Hepatitis B virus; conditions: 1 ug/mL
Experimental: (§2) scAAV2/X-H1-shRNA-intron2 and scAAV2/8-H1-shRNA-intron2 were used to infect HepG2.2.15 cells with increased Multiplicity of Infection (MOI). The levels of HBV HBeAg, HBV HBsAg, and HBV DNA in samples were measured by HBV HBeAg diagnostic kit (Beijing Wantai Biopharmaceuticals Ltd. Co.), HBV HBsAg diagnostic kit (Beijing Wantai Biopharmaceuticals Ltd. Co.), and HBV nucleotide quantification kit (QIAGEN), respectively. 1 ug/mL of Lamivudine (LAM) was used as a positive control in the experiments. scAAV2/X-H1-NC-intron2 (X-NC) and scAAV2/8-H1-NC-intron2 (8-NC) were used as negative controls. […] The sample was collected every day for nine days and analyzed for the levels of HBeAg, HbsAg, and HBV DNA.

HBV HBeAg = assay: suppression of HBV HBeAg in HepG2.2.15 cells; format: cell-based, Hepatitis B virus; conditions: 1 ug/mL
Experimental: as §2

HBV DNA [2] = assay: suppression of HBV DNA in HepG2.2.15 cells; format: cell-based, Hepatitis B virus; conditions: 1 ug/mL
Experimental: as §2

## C=C1[C@H](CO)[C@@H](O)C[C@@H]1n1cnc2c(=O)[nH]c(N)nc21 [ETV, Entecavir]
HBV DNA [1]; D0
  HBV DNA Levels: 1
HBV DNA [1]; D7
  HBV DNA Levels: 5.7
HBV DNA [1]; D14
  HBV DNA Levels: 8.68
HBV DNA [1]; D21
  HBV DNA Levels: 0.66
HBV DNA [1]; D28
  HBV DNA Levels: 1.24
HBV DNA [1]; D35
  HBV DNA Levels: 1.08
HBV DNA [1]; D56
  HBV DNA Levels: 1.17
HBV DNA [1]; D84
  HBV DNA Levels: 1.1
HBV DNA [1]; D112
  HBV DNA Levels: 2.24
HBV DNA [1]; D140
  HBV DNA Levels: 1.91
HBV DNA [1]; D168
  HBV DNA Levels: 1.79
HBV DNA [1]; D196
  HBV DNA Levels: 2.17
HBV DNA [1]; D224
  HBV DNA Levels: 2.48
HBV DNA [1]; D252
  HBV DNA Levels: 1.42
HBsAg; D0
  HBsAg Levels: 1
HBsAg; D7
  HBsAg Levels: 1.52
HBsAg; D14
  HBsAg Levels: 1.51
HBsAg; D21
  HBsAg Levels: 1.08
HBsAg; D28
  HBsAg Levels: 1.55
HBsAg; D35
  HBsAg Levels: 1.8
HBsAg; D56
  HBsAg Levels: 1.21
HBsAg; D84
  HBsAg Levels: 1.18
HBsAg; D112
  HBsAg Levels: 0.43
HBsAg; D140
  HBsAg Levels: 1.04
HBsAg; D168
  HBsAg Levels: 1.23
HBsAg; D196
  HBsAg Levels: 1.48
HBsAg; D224
  HBsAg Levels: 1.16
HBsAg; D252
  HBsAg Levels: 0.72
HBeAg; D0
  HBeAg Levels: 130.7 PEIU/mL
HBeAg; D7
  HBeAg Levels: 138.6 PEIU/mL
HBeAg; D14
  HBeAg Levels: 92.1 PEIU/mL
HBeAg; D21
  HBeAg Levels: 66.5 PEIU/mL
HBeAg; D28
  HBeAg Levels: 78.3 PEIU/mL
HBeAg; D35
  HBeAg Levels: 48.2 PEIU/mL
HBeAg; D56
  HBeAg Levels: 131.4 PEIU/mL
HBeAg; D84
  HBeAg Levels: 105.1 PEIU/mL
HBeAg; D112
  HBeAg Levels: 133.8 PEIU/mL
HBeAg; D140
  HBeAg Levels: 178.5 PEIU/mL
HBeAg; D168
  HBeAg Levels: 125.9 PEIU/mL
HBeAg; D196
  HBeAg Levels: 150.5 PEIU/mL
HBeAg; D224
  HBeAg Levels: 123.5 PEIU/mL
HBeAg; D252
  HBeAg Levels: 155.1 PEIU/mL

## Nc1ccn([C@@H]2CS[C@H](CO)O2)c(=O)n1 [Lamivudine]
HBV HBsAg; D0
  level of HBsAg: 1
HBV HBsAg; D1
  level of HBsAg: 0.7085
HBV HBsAg; D2
  level of HBsAg: 1.069
HBV HBsAg; D3
  level of HBsAg: 0.8838
HBV HBsAg; D4
  level of HBsAg: 0.8549
HBV HBsAg; D5
  level of HBsAg: 0.9837
HBV HBsAg; D6
  level of HBsAg: 1.128
HBV HBsAg; D7
  level of HBsAg: 1.284
HBV HBsAg; D8
  level of HBsAg: 1.324
HBV HBsAg; D9
  level of HBsAg: 0.7175
HBV DNA [1]; D0
  HBV DNA Levels: 1
HBV DNA [1]; D7
  HBV DNA Levels: 1.3
HBV DNA [1]; D14
  HBV DNA Levels: 0.69
HBV DNA [1]; D21
  HBV DNA Levels: 0.49
HBV DNA [1]; D28
  HBV DNA Levels: 0.87
HBV DNA [1]; D35
  HBV DNA Levels: 0.72
HBV DNA [1]; D56
  HBV DNA Levels: 0.97
HBV DNA [1]; D84
  HBV DNA Levels: 0.43
HBV DNA [1]; D112
  HBV DNA Levels: 1.64
HBV DNA [1]; D140
  HBV DNA Levels: 0.92
HBV DNA [1]; D168
  HBV DNA Levels: 0.63
HBV DNA [1]; D196
  HBV DNA Levels: 0.18
HBV DNA [1]; D224
  HBV DNA Levels: 0.12
HBV DNA [1]; D252
  HBV DNA Levels: 0.23
HBV HBeAg; D0
  level of HBeAg: 1
HBV HBeAg; D1
  level of HBeAg: 1.323
HBV HBeAg; D2
  level of HBeAg: 0.716
HBV HBeAg; D3
  level of HBeAg: 0.9612
HBV HBeAg; D4
  level of HBeAg: 1.035
HBV HBeAg; D5
  level of HBeAg: 1.916
HBV HBeAg; D6
  level of HBeAg: 0.9979
HBV HBeAg; D7
  level of HBeAg: 1.148
HBV HBeAg; D8
  level of HBeAg: 0.9362
HBV HBeAg; D9
  level of HBeAg: 0.5632
HBsAg; D0
  HBsAg Levels: 1
HBsAg; D7
  HBsAg Levels: 1
HBsAg; D14
  HBsAg Levels: 0.98
HBsAg; D21
  HBsAg Levels: 1.01
HBsAg; D28
  HBsAg Levels: 0.96
HBsAg; D35
  HBsAg Levels: 1.23
HBsAg; D56
  HBsAg Levels: 0.84
HBsAg; D84
  HBsAg Levels: 0.88
HBsAg; D112
  HBsAg Levels: 0.5
HBsAg; D140
  HBsAg Levels: 0.98
HBsAg; D168
  HBsAg Levels: 1.1
HBsAg; D196
  HBsAg Levels: 0.82
HBsAg; D224
  HBsAg Levels: 0.76
HBsAg; D252
  HBsAg Levels: 0.46
HBV DNA [2]; D0
  level of HBV DNA: 1
HBV DNA [2]; D1
  level of HBV DNA: 0.6797
HBV DNA [2]; D2
  level of HBV DNA: 0.358
HBV DNA [2]; D3
  level of HBV DNA: 0.357
HBV DNA [2]; D4
  level of HBV DNA: 0.1907
HBV DNA [2]; D5
  level of HBV DNA: 0.05735
HBV DNA [2]; D6
  level of HBV DNA: 0.02341
HBV DNA [2]; D7
  level of HBV DNA: 0.04001
HBV DNA [2]; D8
  level of HBV DNA: 0.02104
HBV DNA [2]; D9
  level of HBV DNA: 0.006153
